How the values were obtained:
[1] = tested on: 9 L gliosarcoma cells; assay: Amino acid uptake inhibition assay in 9 L gliosarcoma cells; assay type: cell-based, rat
Description: Amino acid uptake inhibition assays. The 9 L gliosarcoma cells were initially grown as monolayers in T-flasks containing Dulbecco's Modified Eagle's Medium (DMEM) under humidified incubator conditions (37° C., 5% CO2/95% air). The growth media was supplemented with 10% fetal calf serum and antibiotics (10,000 units/ml penicillin and 10 mg/ml streptomycin). The growth media was replaced three times per week, and the cells were passaged so the cells would reach confluency in a week's time.
When the monolayers were confluent, cells were prepared for experimentation in the following manner. Growth media was removed from the T-flask, and the monolayer cells were exposed to 1× trypsin:EDTA for ˜1 minute to weaken the protein attachments between the cells and the flask. The flask was then slapped, causing the cells to release. Supplemented media was added to inhibit the proteolytic action of the trypsin, and the cells were aspirated through an 18 Ga needle until they were monodisperse. A sample of the cells was counted under a microscope using a hemocytometer, and the live/dead fraction estimated through trypan blue staining (>98% viability). The remainder of the cells was placed into a centrifuge tube, centrifuged at 75 G for 5 minutes, and the supernatant was removed. The cells were then resuspended in amino-acid/serum-free DMEM salts.
In this study, approximately 4.55×10^5 cells were exposed to either [^18F]5a or [^18F]5b (5 μCi) in 3 ml of amino acid free media±transporter inhibitors (10 mM) for 30 minutes under incubator conditions in 12×75 mm glass vials. Each assay condition was performed in duplicate. After incubation, cells were twice centrifuged (75 G for 5 minutes) and rinsed with ice-cold amino-acid/serum-free DMEM salts to remove residual activity in the supernatant. The vials were placed in a Packard Cobra II Auto-Gamma counter, the raw counts decay corrected, and the activity per cell number determined. The data from these studies (expressed as percent uptake relative to control) were graphed using Excel, with statistical comparisons between the groups analyzed using a 1-way ANOVA (GraphPad Prism software package).

[2] = Rodent biodistribution study in normal Fischer rats; assay type: in vivo, rat; conditions: for Tissue distribution of radioactivity, Blood / Tissue distribution of radioactivity, Bone / Tissue distribution of radioactivity, Brain / Tissue distribution of radioactivity, Heart / Tissue distribution of radioactivity, Kidney / Tissue distribution of radioactivity, Liver / Tissue distribution of radioactivity, Lung / Tissue distribution of radioactivity, Muscle / Tissue distribution of radioactivity, Pancreas / Tissue distribution of radioactivity, Spleen / Tissue distribution of radioactivity, Testis: normal Fischer rats
Description: Rodent biodistribution studies. The same procedures were used to evaluate [^18F]5a and [^18F]5b separately in rodents. The tissue distribution of radioactivity was determined in 16 normal male Fischer 344 rats (200-250 g) after intravenous injection of ˜85 μCi of [^18F]5a or [^18F]5b in 0.3 mL of sterile water. The animals were allowed food and water ad libitum before the experiment. Following anesthesia induced with an intramuscular injection of 0.1 mL/100 g of a 1:1 ketamine ([…]):xylazine (20 mg/mL) solution, the radiolabeled amino acid was injected into the rats via tail vein catheters. Groups of four rats were killed at 5 minutes, 30 minutes, 60 minutes and 120 minutes after injection of the dose. The animals were dissected, and selected tissues were weighed and counted along with dose standards in a Packard Cobra II Auto-Gamma Counter. The raw counts were decay corrected, and the counts were normalized as the percent of total injected dose per gram of tissue (% ID/g). A comparison of the uptake of activity in the tissues at each time point was analyzed using a 1-way ANOVA (GraphPad Prism software package).

[3] = 5 min after injection, listed as [^18F]N-MeFAMP (5b)

Compound: CNC(C)(CF)C(=O)O (racemic) [[^18F]5b, 3-fluoro-2-methyl-2-(methylamino)propanoic acid]
- uptake of activity blocked by BCH relative to controls ([1]; BCH 10 mM, 30 minutes, 9 L gliosarcoma cells): 33%
- uptake of activity blocked by N-MeAIB relative to controls ([1]; N-MeAIB 10 mM, 30 minutes, 9 L gliosarcoma cells): 88%
- intracellular accumulation in 9 L gliosarcoma cells ([1]; absence of inhibitors, 30 minutes of incubation): 0.50 % of the initial dose per million cells
- substrate for A-type amino acid transport system ([1]; based on inhibition of uptake by N-MeAIB): substrates for the A-type amino acid transport system
- selectivity for A-type amino acid transport ([1]; compared with [18F]5a): more selective substrate for the A-type amino transport system than [^18F]5a
- Tissue distribution of radioactivity, Blood ([2]; 5 min after injection): 0.61 ± 0.02 percent dose per gram
- Tissue distribution of radioactivity, Bone ([2]; 5 min after injection): 0.34 ± 0.04 percent dose per gram
- Tissue distribution of radioactivity, Brain ([2]; 5 min after injection): 0.04 ± 0.005 percent dose per gram
- Tissue distribution of radioactivity, Heart ([2]; 5 min after injection): 0.22 ± 0.01 percent dose per gram
- Tissue distribution of radioactivity, Kidney ([2]; 5 min after injection): 8.12 percent dose per gram
- Tissue distribution of radioactivity, Liver ([2]; 5 min after injection): 0.79 ± 0.06 percent dose per gram
- Tissue distribution of radioactivity, Lung ([2]; 5 min after injection): 0.53 ± 0.03 percent dose per gram
- Tissue distribution of radioactivity, Muscle ([2]; 5 min after injection): 0.16 ± 0.008 percent dose per gram
- Tissue distribution of radioactivity, Pancreas ([2]; 5 min after injection): 2.73 percent dose per gram
- Tissue distribution of radioactivity, Spleen ([2]; 5 min after injection): 0.44 ± 0.06 percent dose per gram
- Tissue distribution of radioactivity, Testis ([2]; 5 min after injection): 0.17 ± 0.004 percent dose per gram
- Tissue distribution of radioactivity, Kidney [2, 3]: 8.12 ± 0.62 percent dose per gram
- Tissue distribution of radioactivity, Pancreas [2, 3]: 2.73 ± 0.28 percent dose per gram
- Tissue distribution of radioactivity, Blood ([2]; 30 min after injection): 0.30 ± 0.003 percent dose per gram
- Tissue distribution of radioactivity, Bone ([2]; 30 min after injection): 0.32 ± 0.04 percent dose per gram
- Tissue distribution of radioactivity, Brain ([2]; 30 min after injection): 0.04 ± 0.004 percent dose per gram
- Tissue distribution of radioactivity, Heart ([2]; 30 min after injection): 0.23 ± 0.03 percent dose per gram
- Tissue distribution of radioactivity, Kidney ([2]; 30 min after injection): 4.60 ± 0.70 percent dose per gram
- Tissue distribution of radioactivity, Liver ([2]; 30 min after injection): 0.72 ± 0.09 percent dose per gram
- Tissue distribution of radioactivity, Lung ([2]; 30 min after injection): 0.50 ± 0.07 percent dose per gram
- Tissue distribution of radioactivity, Muscle ([2]; 30 min after injection): 0.16 ± 0.003 percent dose per gram
- Tissue distribution of radioactivity, Pancreas ([2]; 30 min after injection): 3.00 ± 0.23 percent dose per gram
- Tissue distribution of radioactivity, Spleen ([2]; 30 min after injection): 0.75 ± 0.06 percent dose per gram
- Tissue distribution of radioactivity, Testis ([2]; 30 min after injection): 0.11 ± 0.005 percent dose per gram
- Tissue distribution of radioactivity, Blood ([2]; 60 min after injection): 0.18 ± 0.02 percent dose per gram
- Tissue distribution of radioactivity, Bone ([2]; 60 min after injection): 0.29 ± 0.04 percent dose per gram
- Tissue distribution of radioactivity, Brain ([2]; 60 min after injection): 0.03 ± 0.003 percent dose per gram
- Tissue distribution of radioactivity, Heart ([2]; 60 min after injection): 0.20 ± 0.02 percent dose per gram
- Tissue distribution of radioactivity, Kidney ([2]; 60 min after injection): 2.73 ± 0.35 percent dose per gram
- Tissue distribution of radioactivity, Liver ([2]; 60 min after injection): 0.78 ± 0.10 percent dose per gram
- Tissue distribution of radioactivity, Lung ([2]; 60 min after injection): 0.38 ± 0.07 percent dose per gram
- Tissue distribution of radioactivity, Muscle ([2]; 60 min after injection): 0.15 ± 0.007 percent dose per gram
- Tissue distribution of radioactivity, Pancreas ([2]; 60 min after injection): 3.24 ± 0.30 percent dose per gram
- Tissue distribution of radioactivity, Spleen ([2]; 60 min after injection): 0.68 ± 0.02 percent dose per gram
- Tissue distribution of radioactivity, Testis ([2]; 60 min after injection): 0.08 ± 0.005 percent dose per gram
- Tissue distribution of radioactivity, Blood ([2]; 120 min after injection): 0.10 ± 0.007 percent dose per gram
- Tissue distribution of radioactivity, Bone ([2]; 120 min after injection): 0.20 ± 0.02 percent dose per gram
- Tissue distribution of radioactivity, Brain ([2]; 120 min after injection): 0.03 ± 0.001 percent dose per gram
- Tissue distribution of radioactivity, Heart ([2]; 120 min after injection): 0.17 ± 0.02 percent dose per gram
- Tissue distribution of radioactivity, Kidney ([2]; 120 min after injection): 1.36 ± 0.27 percent dose per gram
- Tissue distribution of radioactivity, Liver ([2]; 120 min after injection): 0.58 ± 0.11 percent dose per gram
- Tissue distribution of radioactivity, Lung ([2]; 120 min after injection): 0.30 ± 0.08 percent dose per gram
- Tissue distribution of radioactivity, Muscle ([2]; 120 min after injection): 0.13 ± 0.007 percent dose per gram
- Tissue distribution of radioactivity, Pancreas ([2]; 120 min after injection): 2.88 ± 0.40 percent dose per gram
- Tissue distribution of radioactivity, Spleen ([2]; 120 min after injection): 0.47 ± 0.04 percent dose per gram
- Tissue distribution of radioactivity, Testis ([2]; 120 min after injection): 0.06 ± 0.005 percent dose per gram
- brain uptake of radioactivity ([2]; normal rats, all time points): approximately 0.04 % ID/g

From patent US7989649B2, “Tumor imaging compounds” (Emory University, priority 2002, dated 2011)
